Structures can show the parent of a compound that is named as a salt. A value given as a limit tells only on which side of the number the result lay.

The target of assay [1] is human TYK2 (JH2domain-pseudokinase) (Homo sapiens (Human), UniProt P29597). Description: TYK2 JH2 domain binding assay (KINOMEscan). How it is done: Binding constants for the compounds described herein against the JH2 domain were determined by the following protocol for a KINOMEscan® assay (DiscoveRx). A fusion protein of a partial length construct of human TYK2 (JH2domain-pseudokinase) (amino acids G556 to D888 based on reference sequence NP_003322.3) and the DNA binding domain of NFkB was expressed in transiently transfected HEK293 cells. From these HEK 293 cells, extracts were prepared in M-PER extraction buffer (Pierce) in the presence of Protease Inhibitor Cocktail Complete (Roche) and Phosphatase Inhibitor Cocktail Set II (Merck) per manufacturers' instructions. The TYK2 (JH2domain-pseudokinase) fusion protein was labeled with a chimeric double-stranded DNA tag containing the NFkB binding site fused to an amplicon for qPCR readout, which was added directly to the expression extract (the final concentration of DNA-tag in the binding reaction is 0.1 nM).
Streptavidin-coated magnetic beads (Dynal M280) were treated with a biotinylated small molecule ligand for 30 minutes at room temperature to generate affinity resins the binding assays. The liganded beads were blocked with excess biotin and washed with blocking buffer (SeaBlock (Pierce), 1% BSA, 0.05% Tween 20, 1 mM DTT) to remove unbound ligand and to reduce nonspecific binding.
The binding reaction was assembled by combining 16 μl of DNA-tagged kinase extract, 3.8 μl liganded affinity beads, and 0.18 μl test compound (PBS/0.05% Tween 20/10 mM DTT/0.1% BSA/2 μg/ml sonicated salmon sperm DNA)]. Extracts were used directly in binding assays without any enzyme purification steps at a ≥10,000-fold overall stock dilution (final DNA-tagged enzyme concentration <0.1 nM). Extracts were loaded with DNA-tag and diluted into the binding reaction in a two-step process. First extracts were diluted 1:100 in 1×binding buffer (PBS/0.05% Tween 20/10 mM DTT/0.1% BSA/2 […] sonicated salmon sperm DNA) containing 10 nM DNA-tag. This dilution was allowed to equilibrate at room temperature for 15 minutes and then subsequently diluted 1:100 in 1× binding buffer. Test compounds were prepared as 111× stocks in 100% DMSO. Kds were determined using an 11-point 3-fold compound dilution series with three DMSO control points. All compounds for Kd measurements were distributed by acoustic transfer (non-contact dispensing) in 100% DMSO. The compounds were then diluted directly into the assays such that the final concentration of DMSO was 0.9%. All reactions were performed in polypropylene 384-well plates. Each was a final volume of 0.02 mL. Assays were incubated with shaking for 1 hour at room temperature. Then the beads were pelleted and washed with wash buffer (1×PBS, 0.05% Tween 20) to remove displaced kinase and test compound. The washed based were resuspended in elution buffer (1 λPBS, 0.05% Tween […] non-biotinylated affinity ligand) and incubated at room temperature with shaking for 30 minutes. The kinase concentration in the eluates was measured by qPCR. qPCR reactions were assembled by adding 2.5 μL of kinase eluate to 7.5 μL of qPCR master mix containing […] amplicon primers and 0.15 μM amplicon probe. The qPCR protocol consisted of a 10 minute hot start at 95° C., followed by 35 cycles of 95° C. for 15 seconds, 60° C. for 1 minute.
Test compounds were prepared as 111× stocks in 100% DMSO. Kds were determined using an 11-point 3-fold compound dilution series with three DMSO control points. All compounds for Kd measurements were distributed by acoustic transfer (non-contact dispensing) in 100% DMSO. The compounds were then diluted directly into the assays such that the final concentration of DMSO was 0.9%. The Kds were determined using a compound top concentration of 30,000 nM. Kd measurements were performed in duplicate.
Binding constants (Kds) were calculated with a standard dose-response curve using the Hill equation: […]
The Hill Slope was set to −1. […]

Assay [2] has as its target TYK2 JH1 (Homo sapiens (Human), UniProt P29597). Description: TYK2 JH1 binding (Kd, Table 2). The conditions noted are these: JH1 domain.
In assay [3] the target is JAK1 JH2 (Homo sapiens (Human), UniProt P23458). Description: JAK1 JH2 binding (Kd, Table 2). The conditions noted are these: JH2 domain.
JAK1 JH2, sequence (P23458 583-855): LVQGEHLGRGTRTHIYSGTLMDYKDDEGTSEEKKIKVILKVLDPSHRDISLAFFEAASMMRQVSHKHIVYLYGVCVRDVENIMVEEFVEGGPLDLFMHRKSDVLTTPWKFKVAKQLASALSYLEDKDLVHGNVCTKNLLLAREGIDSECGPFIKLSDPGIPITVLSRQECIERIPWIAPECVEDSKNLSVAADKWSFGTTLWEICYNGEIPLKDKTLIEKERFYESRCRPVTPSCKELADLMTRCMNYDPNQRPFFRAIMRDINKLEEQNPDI

human TYK2 (JH2domain-pseudokinase), sequence (P29597 556-888): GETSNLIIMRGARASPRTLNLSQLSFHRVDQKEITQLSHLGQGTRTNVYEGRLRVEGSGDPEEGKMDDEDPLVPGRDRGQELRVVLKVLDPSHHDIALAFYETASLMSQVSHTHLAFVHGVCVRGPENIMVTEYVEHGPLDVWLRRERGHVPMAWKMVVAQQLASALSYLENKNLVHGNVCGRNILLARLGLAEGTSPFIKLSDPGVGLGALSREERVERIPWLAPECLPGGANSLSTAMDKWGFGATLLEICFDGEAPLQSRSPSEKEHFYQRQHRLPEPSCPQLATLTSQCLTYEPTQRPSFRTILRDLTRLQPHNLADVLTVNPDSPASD
TYK2 JH1, sequence (P29597 897-1176): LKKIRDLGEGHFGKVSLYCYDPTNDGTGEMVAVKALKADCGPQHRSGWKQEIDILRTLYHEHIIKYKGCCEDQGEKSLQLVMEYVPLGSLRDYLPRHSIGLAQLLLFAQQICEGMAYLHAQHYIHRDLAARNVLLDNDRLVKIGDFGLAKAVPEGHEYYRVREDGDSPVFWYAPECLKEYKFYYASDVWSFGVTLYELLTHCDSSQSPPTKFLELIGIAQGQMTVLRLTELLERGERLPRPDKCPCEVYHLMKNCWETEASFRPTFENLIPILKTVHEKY

Usually Kd stands for the concentration at which binding is half-saturated. A higher Kd goes with a looser complex. With `CNc1cc2nc3c(cnn13)C(=O)O[C@H](C)COCc1cc(c3nnn(C)c3c1)N2` [Compound 4, (R,1^3E,1^4E)-3^1,7-dimethyl-1^7-(methylamino)-3^1H-5,8-dioxa-2-aza-1(5,3),3(4,6)-dipyrazolo [1,5-a]pyrimidinacyclononaphan-9-one], the results for the Kd in assay [1], in assay [2] and in assay [3] were below 10 nM, at least 30000 nM and 1000 to 10000 nM, respectively. As for `CNc1cc2nc3c(cnn13)C(=O)N[C@H](C)COCc1cc(c3c(c1)ncn3C)N2` [Compound 9, (R,1^3E,1^4E)-3^1,7-Dimethyl-1^7-(methylamino)-3^1H-5-oxa-2,8-diaza-1(5,3)-pyrazolo[1,5-a]pyrimidina-3(7,5)-benzo[d]imidazolacyclononaphan-9-one], the dissociation constant Kd in assay [1] is below 10 nM; in assay [2], at least 30000 nM; in assay [3], 1000 to 10000 nM.

For the compound `CNc1cc2nn3c(cnc13)C(=O)N[C@H](C)COCc1cc(c3ncn(C)c3c1)N2` [Compound 10, (7R,E)-3′,7-Dimethyl-1^8-(methylamino)-3^1H-5-oxa-2,8-diaza-1(6,3)-imidazo[1,2-b]pyrida-zina-3(4,6)-benzo[d]imidazolacyclononaphan-9-one], the Kd in assay [1] is below 10 nM; in assay [2] it was 1000 to 10000 nM; in assay [3], 1000 to 10000 nM. For `CNc1cc2nc3c(cnn13)C(=O)N[C@H](C)COCc1cc(c3ncn(C)c3c1)N2` [Compound 11, (R,1^3E,1^4E)-3′,7-Dimethyl-17-(methylamino)-3^1H-5-oxa-2,8-diaza-1(5,3)-pyrazolo[1,5-a]pyrimidina-3(4,6)-benzo[d]imidazolacyclononaphan-9-one], the Kd is below 10 nM in assay [1], 10000 to 30000 nM in assay [2] and 1000 to 10000 nM in assay [3]. For `CNc1cc2nn3c(cnc13)C(=O)N[C@H](C)COCc1cc(c3cnn(C)c3c1)N2` [Compound 12, (7R,E)-3^1,7-Dimethyl-1^8-(methylamino)-3^1H-5-oxa-2,8-diaza-1(6,3)-imidazo[1,2-b]pyridazina-3(4,6)-indazolacyclononaphan-9-one] the same measures were below 10 nM, 1000 to 10000 nM and 10 to 1000 nM. In the same order, the values of `CNc1cc2nn3c(cnc13)C(=O)N[C@H](C)COCc1cc(c3c(cnn3C)c1)N2` [Compound 14, (7R,E)-3′,7-Dimethyl-1^8-(methylamino)-3^1H-5-oxa-2,8-diaza-1(6,3)-imidazo[1,2-b]pyridazina-3(7,5)-indazolacyclononaphan-9-one] are below 10 nM, 10000 to 30000 nM and 10000 to 30000 nM.

For the compound `CNc1cc2nc3c(cnn13)C(=O)N[C@H](CO)[C@@H](C)OCc1cc(c3nnn(C)c3c1)N2` [Compound 15], the values for the Kd in assay [1], in assay [2] and in assay [3] were below 10 nM, at least 30000 nM and 1000 to 10000 nM, respectively. For `CNc1cc2nc3c(cnn13)C(=O)N[C@H](C(C)(C)O)COCc1cc(c3nnn(C)c3c1)N2` [Compound 16] the same measures were below 10 nM, at least 30000 nM and at least 30000 nM. For the compound `CNc1cc2nc3c(cnn13)C(=O)N[C@H](C)COCc1cc(c3nn(C)cc3c1)N2` [Compound 35], the Kd in assay [1] is below 10 nM; in assay [2] it was at least 30000 nM; in assay [3], 10 to 1000 nM.

Take `CNc1cc2nn3c(cnc13)C(=O)N[C@H](C)COCc1cc(c3nn(C)cc3c1)N2` [Compound 36]: the Kd in assay [1] was below 10 nM; in assay [2], 1000 to 10000 nM; in assay [3], 10 to 1000 nM. For `CNc1cc2nc3c(cnn13)C(=O)N[C@H](C)[C@H](C)OCc1cc(c3nnn(C)c3c1)N2` [Compound 38] the same measures were below 10 nM, at least 30000 nM and 1000 to 10000 nM. In the case of `CNc1cc2nc3c(cnn13)C(=O)N[C@H](C)COCc1cc(c3cnn(C)c3c1)N2` [Compound 52], the Kd in assay [1] is below 10 nM; in assay [2], 10000 to 30000 nM; in assay [3], 1000 to 10000 nM. `C[C@@H]1COCc2cc(c3nnn(C)c3c2)Nc2ccn3ncc(c3n2)C(=O)N1` [Compound 54]: the Kd in assay [1] is below 10 nM.

With `CNc1cc2nn3c(cnc13)C(=O)N[C@H](C)CSCc1cc(c3nnn(C)c3c1)N2` [Compound 55], the Kd in assay [1] was below 10 nM. In turn, `CNc1cc2nn3c(cnc13)C(=O)N[C@H](C)COc1ncnc3cc(OC)c(cc13)N2` [Compound 56] registered a Kd in assay [1] below 10 nM. In assay [1], `CNc1cc2nn3c(cnc13)C(=O)N[C@H](C)CS(=O)(=O)Cc1cc(c3nnn(C)c3c1)N2` [Compound 57] displayed a Kd below 10 nM.

On to `CNc1cc2nn3c(cnc13)C(=O)N[C@H](C)C[S+]([O-])Cc1cc(c3nnn(C)c3c1)N2` (stereo partly drawn) [Compound 58], for which the Kd in assay [1] is below 10 nM. On the same count and under the same terms, the value for `CNc1nc2nc3c(n[nH]c13)C(=O)N[C@H](C)COCc1cc(c3nnn(C)c3c1)N2` [Compound 59] was below 10 nM; that for `CNc1cc2nn3c(cnc13)C(=O)N[C@H](C)CNc1ccnc3ccc(cc13)N2` [Compound 61, (12R)-12-methyl-24-(methylamino)-2,4,5,7,11,14,18-heptaazapentacyclo[13.6.2.2^{3,6}0.^{5,9}0.^{19,23}]pentacosa-1(21),3,6,8,15,17,19,22,24-nonaen-10-one] was below 10 nM. The same measure, in the same setting: then `CNc1cc2nn3c(cnc13)C(=O)N[C@H](C)COc1nccc3ccc(cc13)N2` [Compound 62], with below 10 nM; and `CNc1cc2nn3c(cnc13)C(=O)N[C@H](C)COc1ccnc3cnc(cc13)N2` [Compound 63, (12R)-12-methyl-24-(methylamino)-14-oxa-2,4,5,7,11,18,21-heptaazapentacyclo[13.6.2.2^(3,6.0^(5,9.0^(19,23]pentacosa-1(22),3,6,8,15,17,19(23),20,24-nonaen-10-one hydrochloride], with below 10 nM. In the case of `CNc1cc2nn3c(cnc13)C(=O)N[C@H](C)COc1cccc3ncc(cc13)N2` [Compound 64], in assay [1], the Kd is below 10 nM. On the same count and under the same terms, then `CNc1nc2nc3c(nn(C)c13)C(=O)N[C@H](C)COCc1cc(c3nnn(C)c3c1)N2` [Compound 65], with below 10 nM; and `CNc1cc2nn3c(cnc13)C(=O)N[C@H](C)CNc1ncnc3ccc(cc13)N2` [Compound 66], with below 10 nM; and `Cc1nc2ccc3nn2c1C(=O)N[C@H](C)COCc1cc(c2nnn(C)c2c1)N3` [Compound 67], with below 10 nM. Still for that read-out and setting: then `CNc1cc2nn3c(cnc13)C(=O)N[C@H](C)COc1cncc3ccc(cc13)N2` [Compound 68], with below 10 nM. Still for that read-out and setting: then `CNc1cc2nn3c(cnc13)C(=O)N[C@H](C)COc1cccc3ccc(nc13)N2` [Compound 69], with below 10 nM; and `CNc1nc2nc3c(n(C)nc13)C(=O)N[C@H](C)COCc1cc(c3nnn(C)c3c1)N2` [Compound 70], with below 10 nM; and `C[C@@H]1COCc2cc(c3nnn(C)c3c2)Nc2ccc3ncc(n3c2)C(=O)N1` [Compound 71], with 10 to 1000 nM. Consider `Cc1nc2ccc3cn2c1C(=O)N[C@H](C)COCc1cc(c2nnn(C)c2c1)N3` [Compound 75], for which the Kd in assay [1] was in the range of 10 to 1000 nM. The same measure, in the same setting: the value for `CNc1nc2cn3c(cnc13)C(=O)N[C@H](C)COCc1cc(c3nnn(C)c3c1)N2` [Compound 76] was 1000 to 10000 nM; that for `C[C@@H]1COCc2cc(c3nnn(C)c3c2)Nc2cn3c(cnc3cn2)C(=O)N1` [Compound 77] was 1000 to 10000 nM; that for `CNc1cc2nn3c(cnc13)C(=O)N[C@H](C)COCc1cc(cn3ccnc13)N2` [Compound 99, (14R)-14-methyl-21-(methylamino)-12-oxa-2,5,8,15,19,23,24-heptaazapentacyclo[15.5.2.1^(3,10.0^(5,9.0^(20,24]pentacosa-1(23),3,6,8,10(25),17,19,21-octaen-16-one hydrochloride] was below 10 nM.

(Values after patent publication US20250213571A1, “TYK2 INHIBITORS AND USES THEREOF” (Alumis Inc., priority 2022, published 2025).)
